In patent publication US9255107B2 (NANJING SANHOME PHARMACEUTICAL CO., LTD., priority 2012, dated 2016):
Structures can show the parent of a compound that is named as a salt. Where two headings read alike, the source gives them in different places.

Experiments:
[1] = system: K562 leukemia cells; test: MTT assay, in vitro inhibitory activity on cells; type: cell-based; details: Homo sapiens, typically 48 hours, read-out: IC50 K562 Chronic myelogenous leukemia cells
Excerpt: (§1) In this example, MTT assay was used to detect in vitro inhibitory activity of the compounds prepared according to the above examples on the cells.
(§2) Dimethyl sulfoxide (DMSO) is capable of dissolving formazan in cells, and absorbance value can be measured at a wavelength of 490 nm by an enzyme-linked immunometric meter, which reflects the number of living cells. Within a certain range of the number of cells, the amount of MTT crystals formed is proportional to the number of living cells.
(§3) 2. Culturing in a 37° C., 5% CO2 incubator and keeping the cells adhering to the walls of the wells.
(§4) 4. Carefully removing the supernatant, gently washing with PBS and discarding the supernatant again.
(§5) 6. Terminating culturing and carefully discarding the medium in each well. 7. Adding 150 μl dimethyl sulfoxide into each well, shaking for 10 minutes at low speed in a shaker, to make crystals fully dissolved.
(§6) 8. Measuring the absorbance of each well at 490 nm by an enzyme-linked immunometric meter.

[2] = system: MDA-MB-231 human breast cancer cells; test: MTT assay, in vitro inhibitory activity on cells; type: cell-based; details: typically 48 hours
Excerpt: as §1, §2, §3, §4, §5, §6

[3] = system: Saos-2 human osteosarcoma cells; test: MTT assay, in vitro inhibitory activity on cells; type: cell-based; details: typically 48 hours
Excerpt: as §1, §2, §3, §4, §5, §6

[4] = system: Ovcar-3 human ovarian cancer cells; test: MTT assay, in vitro inhibitory activity on cells; type: cell-based; details: typically 48 hours
Excerpt: as §1, §2, §3, §4, §5, §6

[5] = Pharmacokinetic studies in male SD rats; type: in vivo; details: rat, plasma; for MRT inf: read-out: MRT(0-∞)
Experimental: The compound prepared in Example 27 of the present invention was illustratively selected for this experiment. The pharmaceutical formulation for oral administration was made by dissolving the compound in physiological saline to prepare 3 mg/ml of suspension. The pharmaceutical formulation for caudal vein injection was made by using a mixed solution of DMSO, polyoxyethylene castor oil and physiological saline in the volume ratio of 1:30:69 to prepare 2.5 mg/ml of solution.
Male SD rats, each group of three, weighing 150 g-250 g, were provided by Shanghai SIPPR-BK Laboratory Animal Co. Ltd., China. The tested rats were acclimatized to the environment for 2-4 days prior to the experiment, and fasted for 8-12 hours before administration. The rats drank water freely 2 hours after administration, and were fed food 4 hours after administration.
1) Taking blank plasma (zero-hour sample) after the SD rats were fasted but allowed drinking water freely for 12 hours;
2) Administering to three rats in Step 1) the compound prepared in Example 27 at 15 mg/kg by gavage (Intragastric administration, IG);
administering to another three rats in Step 1) the compound prepared in Example 27 at 3 mg/kg by caudal vein (Intravenous administration, IV);
(§7) 3) Collecting sequentially blood from retinal venous plexus of the rats at 10 min, 30 min, 1 h, 2 h, 4 h, 6 h, 8 h, 10 h, 24 h after gavage administration, placing into the heparin-coated EP tubes, taking the upper plasma after centrifuging for 5 min at 8000 rpm/min, and storing at −20° C. until LC-MS/MS analysis;
4) Calculating the pharmacokinetic parameters using WinNonlin software according to the blood concentration—time data obtained from Step 3), shown in Table 4;
as §7, with “5)” for “3)”, “5 min, 15” for “10”, “h,” for “h, 6 h,”, “8” for “8 h, 10”, “caudal vein” for “gavage”
6) Calculating the pharmacokinetic parameters using WinNonlin software according to the blood concentration—time data obtained from Step 5), shown in Table 4.

SMILES	IC50 [1] [nM]	IC50 [2] [nM]	IC50 [3] [nM]	IC50 [4] [nM]	other results
Cc1ccc(NC(=O)Nc2ccc(CN3CCN(C)CC3)c(C(F)(F)F)c2)cc1C#Cc1ccc(-c2ncc(C#N)[nH]2)nc1 [Example 23, N-[3-(2-(5-acetonitrile-1H-imidazol-2-yl)pyridin-5-yl)ethynyl-4-methylphenyl]-N′-[3-trifluoromethyl-4-(4-methylpiperazin-1-ylmethyl)phenyl]urea]	3310	–	–	–	–
Cc1ccc(C(=O)Nc2ccc(CN3CCN(C)CC3)c(C(F)(F)F)c2)cc1C#Cc1cn(C)c(-c2ncc([N+](=O)[O-])[nH]2)n1 [Example 11, 4-methyl-3-((1-methyl-5′-nitro-1H,1′H-[2,2′-diimidazol]-4-yl)ethynyl)-N-[4-((4-methylpiperazin-1-yl)methyl)-3-trifluoromethylphenyl]benzamide]	3140	360	2680	10000	–
CNC(=O)c1cc(Oc2ccc(NC(=O)c3ccc(C)c(C#Cc4ccc(-c5nc[nH]n5)nc4)c3)cc2)ccn1 [Example 26, 4-methyl-3-[2-([1,2,4]-1H-triazol-3-yl)pyridin-5-yl]ethynyl-N-[(2-N-methylcarbamoylpyridin-4-yl)oxy]phenylbenzamide]	5910	–	–	–	–
CNC(=O)c1cc(Oc2cc(NC(=O)c3ccc(F)c(C#Cc4cnc(-c5nc[nH]n5)n4C)c3)cc(C(F)(F)F)c2)ccn1 [Example 17, 4-fluoro-3-[1-methyl-2-([1,2,4]-1H-triazol-3-yl)imidazol-5-yl]ethynyl-N-[3-trifluoromethyl-5-(2-N-methylcarbamoylpyridin-4-yl)oxy]phenylbenzamide]	–	980	640	3980	–
Cc1ccc(C(=O)Nc2ccc(CN3CCN(C)CC3)c(C(F)(F)F)c2)cc1C#Cc1cnc2[nH]ccc2n1 [Example 27, hydrochloride]	–	–	–	–	AUC(0-inf) ([5]; iv, I.V. 3 mg/kg): 3380 ng·h/mL; AUC(0-t) ([5]; iv, I.V. 3 mg/kg): 3300 ng·h/mL; Cmax ([5]; iv, I.V. 3 mg/kg): 1270 ng/mL; half-life ([5]; iv, I.V. 3 mg/kg): 4.93 h; MRT inf ([5]; iv, I.V. 3 mg/kg): 4.92 h; bioavailability ([5]; oral, I.G. 15 mg/kg vs I.V. 3 mg/kg, read-out: F (oral bioavailability)): 32.6%; AUC(0-inf) ([5]; po, I.G. 15 mg/kg): 5220 ng·h/mL; AUC(0-t) ([5]; po, I.G. 15 mg/kg): 5370 ng·h/mL; Cmax ([5]; po, I.G. 15 mg/kg): 376 ng/mL; Tmax ([5]; po, I.G. 15 mg/kg): 7.33 h; half-life ([5]; po, I.G. 15 mg/kg): 4.1 h; MRT inf ([5]; po, I.G. 15 mg/kg): 7.71 h
CNc1nc2cc(C#Cc3cc(NC(=O)Nc4ccc(CN5CCN(C)CC5)c(C(F)(F)F)c4)ccc3C)ccn2n1 [Example 7]	5070	–	–	–	–
Cc1ccc(C(=O)Nc2ccc(CN3CC[C@H](N(C)C)C3)c(C(F)(F)F)c2)cc1C#Cc1ccc(-c2ncc(F)[nH]2)nc1 [Example 22, 4-methyl-3-((2-(5-fluoro-1H-imidazol-2-yl)pyridin-5-yl)ethynyl)-N-[(S)-4-((3-dimethylaminotetrahydropyrrol-1-yl)methyl)-3-trifluoromethylphenyl]benzamide]	4070	1150	–	–	–
Cc1ccc(NC(=O)c2ccc(CN3CCN(C)CC3)cc2)cc1C#Cc1ccc(-c2ncc(C#N)[nH]2)nc1 [Example 21]	3590	2060	–	–	–
Cc1ccc(C(=O)Nc2ccc(CN3CCN(C)CC3)c(C(F)(F)F)c2)cc1C#Cc1ccc(-c2nc[nH]n2)nc1 [Example 25, 4-methyl-3-((2-(1,2,4-triazol-3-yl)pyridin-5-yl)ethynyl)-N-[4-((4-methylpiperazin-1-yl)methyl)-3-trifluoromethylphenyl]benzamide]	3580	2860	–	–	–
Cc1ccc(NC(=O)Nc2ccc(CN3CCN(C)CC3)c(C(F)(F)F)c2)cc1C#Cc1cnc2[nH]ncc2c1 [Example 1, N-[3-((1H-pyrazolo[3,4-b]pyridin-5-yl)ethynyl)-4-methylphenyl]-N′-[4-((4-methylpiperazin-1-yl)methyl)-3-trifluoromethylphenyl]urea]	4130	2790	–	–	–
Cc1cn(-c2cc(NC(=O)c3ccc(F)c(C#Cc4cnc(-c5nc[nH]n5)n4C)c3)cc(C(F)(F)F)c2)cn1 [Example 16, 3-[1-methyl-2-([1,2,4]-1H-triazol-3-yl)imidazol-5-yl]ethynyl-4-fluoro-N-[3-trifluoromethyl-5-(4-methylimidazol-1-yl)phenyl]benzamide]	–	1270	1160	4720	–

Second part, led by results:

IC50 [1] [nM]	IC50 [2] [nM]	IC50 [3] [nM]	IC50 [4] [nM]	SMILES	other results
420	–	–	–	Cc1ccc(NC(=O)Nc2ccc(CN3CCN(C)CC3)c(C(F)(F)F)c2)cc1C#Cc1ccn2nc(N(C)C)nc2c1 [Example 8]	–
2310	1270	5730	4060	Cc1cnc(-c2nc(C#Cc3cc(C(=O)Nc4ccc(CN5CCN(CCO)CC5)c(C(F)(F)F)c4)ccc3C)cn2C)[nH]1 [Example 12, 4-methyl-3-((1-methyl-5′-methyl-1H,1′H-[2,2′-diimidazol]-4-yl)ethynyl)-N-[4-((4-hydroxyethylpiperazin-1-yl)methyl)-3-trifluoromethylphenyl]benzamide]	–
370	560	–	–	Cc1ccc(NC(=O)c2ccc(CN3CCN(CCO)CC3)c(C(F)(F)F)c2)cc1C#Cc1cn(C)c(-c2ncc(C(F)(F)F)[nH]2)n1 [Example 15]	–
940	1170	–	–	Cc1cn(-c2cc(C(=O)Nc3ccc(F)c(C#Cc4ccc(-c5ncc(C(F)(F)F)[nH]5)nc4)c3)cc(C(F)(F)F)c2)cn1 [Example 24, 3-trifluoromethyl-5-(4-methylimidazol-1-yl)-N-[3-(2-(5-trifluoromethyl-1H-imidazol-2-yl)pyridin-5-yl)ethynyl-4-fluorophenyl]-benzamide]	–
160	1210	–	–	Cc1ccc(NC(=O)Nc2ccc(CN3CCN(C)CC3)c(C(F)(F)F)c2)cc1C#Cc1cn(C)c(-c2ncc(C(F)(F)F)[nH]2)n1 [Example 14, N-[4-methyl-3-((1-methyl-5′-trifluoromethyl-1H,1′H-[2,2′-diimidazol]-4-yl)ethynyl)phenyl]-N′-[4-((4-methylpiperazin-1-yl)methyl)-3-trifluoromethylphenyl]urea]	–
1920	1420	870	3190	Cc1ccc(C(=O)Nc2ccc(CN3CCN(C)CC3)c(C(F)(F)F)c2)cc1C#Cc1cn(C)c(-c2ncc[nH]2)n1 [Example 10, 4-methyl-3-((1-methyl-1H,1′H-[2,2′-diimidazol]-4-yl)ethynyl)-N-[4-((4-methylpiperazin-1-yl)methyl)-3-trifluoromethylphenyl]benzamide]	–
520	290	–	–	Cc1ccc(NC(=O)Nc2ccc(CN3CC[C@@H](N(C)C)C3)c(F)c2)cc1C#Cc1cn(C)c(-c2ncc(C(F)(F)F)[nH]2)n1 [Example 13, N-[4-methyl-3-((1-methyl-5′-trifluoromethyl-1H,1′H-[2,2′-diimidazol]-4-yl)ethynyl)phenyl]-N′—(R)-[4-((3-dimethylaminotetrahydropyrrol-1-yl)methyl)-3-fluorophenyl]urea]	–
2210	4720	–	–	Cc1ccc(C(=O)Nc2ccc(CN3CC[C@@H](N(C)C)C3)c(C(F)(F)F)c2)cc1C#Cc1ccc(-c2ncc(C(F)(F)F)[nH]2)nc1 [Example 20, 4-methyl-3-((2-(5-trifluoromethyl-1H-imidazol-2-yl)pyridin-5-yl)ethynyl)-N—[(R)-4-((3-dimethylaminotetrahydropyrrol-1-yl)methyl)-3-trifluoromethylphenyl]benzamide]	–
2060	110	270	3090	Cc1ccc(NC(=O)Nc2ccc(CN3CCN(C)CC3)c(C(F)(F)F)c2)cc1C#Cc1cnc2[nH]ccc2n1 [Example 2, N-[3-((1H-pyrrolo[2,3-b]pyrazin-5-yl)ethynyl)-4-methylphenyl]-N′-[4-((4-methylpiperazin-1-yl)methyl)-3-trifluoromethylphenyl]urea]	–
